Consider one compound from ChEMBL document CHEMBL3352021, “Naphthyridinone (NTD) integrase inhibitors 4. Investigating N1 acetamide substituent effects with C3 amide groups” (Bioorg Med Chem Lett, 2014).

SMILES strings stand for the structures.

What is called clearance is the volume of plasma or blood freed of the substance per unit of time. One may read the IC50 as the point on the concentration scale where inhibition reaches its midpoint. One may read the half-life as the time in which the quantity being followed falls by half. A word on the IC90: it is the concentration at which the effect reaches the 90% level.

A short description of data set [1]: Ratio of plasma concentration in cynomolgus monkey at 5 mg/kg, po to IC90 for HIV infected in PBMC assessed as protein-adjusted compound concentration. It counts as ADME, organism-based. Also noted: dose 5 mg/kg, route oral. The conditions noted are these: in vivo.
Data set [2] is described as follows: Plasma clearance in dog at 1 mg/kg, iv.
In data set [3] the test system is Human immunodeficiency virus. In words: Ratio of IC50 for pseudotyped HIV by luciferase reporter gene assay in presence of human serum albumin to IC50 for pseudotyped HIV by luciferase reporter gene assay. It counts as functional.
Data set [4] in a line: Plasma clearance in rat at 1 mg/kg, iv.
A short description of data set [5]: Plasma clearance in cynomolgus monkey at 1 mg/kg, iv.
Data set [6] concerns Human immunodeficiency virus. Kind of data set: Antiviral activity against HIV infected in PBMC. The class given is functional, organism-based. The conditions noted are these: Human immunodeficiency virus 1.
The nature of data set [7]: Half life in rat at 1 mg/kg, iv as bolus dose. It counts as ADME, organism-based. The arrangement: dose 1 mg/kg, route intravenous. Particulars: in vivo; call rule not given here.
Data set [8] concerns Human immunodeficiency virus. Kind of data set: Antiviral activity against pseudotyped HIV by luciferase reporter gene assay in presence of human serum albumin. The conditions noted are these: Human immunodeficiency virus 1. The class given is functional, organism-based. In general terms: A reporter such as luciferase makes a cellular process visible.
Data set [9] in a line: Ratio of plasma concentration in rat at 5 mg/kg, po to IC90 for HIV infected in PBMC assessed as protein-adjusted compound concentration. The class given is ADME, organism-based. Also noted: dose 5 mg/kg, route oral. The conditions noted are these: in vivo.
Data set [10] has as its system Human immunodeficiency virus. Kind of data set: Antiviral activity against HIV infected in PBMC assessed as protein-adjusted compound concentration. It counts as functional, organism-based. Particulars: Human immunodeficiency virus 1.
Data set [11] can be described thus: Ratio of plasma concentration in dog at 5 mg/kg, po to IC90 for HIV infected in PBMC assessed as protein-adjusted compound concentration. It counts as ADME, organism-based. Particulars: in vivo. Also noted: dose 5 mg/kg, route oral.
Data set [12] is described as follows: Oral bioavailability in dog at 5 mg/kg. It counts as ADME, organism-based, Canis lupus familiaris. The conditions noted are these: in vivo.
Data set [13] in a line: Oral bioavailability in cynomolgus monkey at 5 mg/kg. The class given is ADME, organism-based, Macaca fascicularis. The conditions noted are these: in vivo.
The target in the next data set is T1, Cytochrome P450 1A2 (Homo sapiens, UniProt P05177).
T1 sequence (P05177 whole entry): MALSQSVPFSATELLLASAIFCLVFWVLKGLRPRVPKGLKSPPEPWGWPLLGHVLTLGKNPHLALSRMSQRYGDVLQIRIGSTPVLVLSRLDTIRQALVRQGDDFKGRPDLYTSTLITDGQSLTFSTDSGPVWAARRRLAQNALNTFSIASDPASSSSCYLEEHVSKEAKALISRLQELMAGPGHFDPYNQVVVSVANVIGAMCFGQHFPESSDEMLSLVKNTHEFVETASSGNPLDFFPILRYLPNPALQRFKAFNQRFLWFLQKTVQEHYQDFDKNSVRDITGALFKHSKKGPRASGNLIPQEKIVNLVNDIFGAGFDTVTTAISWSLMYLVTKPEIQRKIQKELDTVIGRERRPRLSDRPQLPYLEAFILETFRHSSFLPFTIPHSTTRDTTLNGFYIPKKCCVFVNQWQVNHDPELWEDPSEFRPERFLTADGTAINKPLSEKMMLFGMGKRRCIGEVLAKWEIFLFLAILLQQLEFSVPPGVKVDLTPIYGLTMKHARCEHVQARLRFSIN
Kind of data set: Inhibition of CYP1A2 (unknown origin) at 4.7 uM. It counts as ADME.

Data set [14] relates to Human immunodeficiency virus. In words: Antiviral activity against pseudotyped HIV by luciferase reporter gene assay. The class given is functional, organism-based. Particulars: Human immunodeficiency virus 1.
Data set [15] is described as follows: Half life in cynomolgus monkey at 1 mg/kg, iv as bolus dose. It counts as ADME, organism-based, Macaca fascicularis. The arrangement: dose 1 mg/kg, route intravenous. The conditions noted are these: in vivo.
Data set [16] can be described thus: Half life in dog at 1 mg/kg, iv as bolus dose. It counts as ADME, organism-based, Canis lupus familiaris. Also noted: dose 1 mg/kg, route intravenous. The conditions noted are these: in vivo.
The target of data set [17] is Human immunodeficiency virus type 1 integrase (Human immunodeficiency virus 1, UniProt Q7ZJM1). In words: Inhibition of recombinant HIV-1 integrase by strand-transfer assay.
Data set [18] can be described thus: Oral bioavailability in rat at 5 mg/kg. The class given is ADME, organism-based. Particulars: in vivo.

Human immunodeficiency virus type 1 integrase, sequence (Q7ZJM1 whole entry): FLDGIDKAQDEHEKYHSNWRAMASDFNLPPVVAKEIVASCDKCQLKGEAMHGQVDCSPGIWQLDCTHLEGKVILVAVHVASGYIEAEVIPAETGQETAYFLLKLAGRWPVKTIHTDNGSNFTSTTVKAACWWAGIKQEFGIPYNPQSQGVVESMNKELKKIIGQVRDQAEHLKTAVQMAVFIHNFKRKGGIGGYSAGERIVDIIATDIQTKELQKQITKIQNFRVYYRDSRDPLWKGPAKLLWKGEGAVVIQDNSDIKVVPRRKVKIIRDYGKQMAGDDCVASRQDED

`CNC(=O)Cn1c(=O)c(C(=O)NCCOC)c(O)c2ncc(Cc3ccc(F)cc3)cc21`: the Ratio came to 0.8 in data set [1], 56 in data set [9] and 0.1 in [11]. The clearance in data set [2] amounted to 13.8 mL/min/kg; in data set [4] it was 0.5 mL/min/kg; in data set [5] it was 2 mL/min/kg. The “Ratio IC50” value in data set [3] turned out to be 4.5. The IC50 in data set [6] is 2.3 nM; in [8] it was 14 nM; in data set [10], 10 nM; in data set [14], 3 nM; in [17], 9 nM. Besides, the half-life in data set [7] is 3.7 h; in data set [15] it was 2.3 h; in [16], 1.2 h. Further, in [10], the IC90 turned out to be 41 nM. Also, the figures for the bioavailability in data set [12], in data set [13] and in [18] were 111%, 19% and 51%, respectively. The “inhibition (INH)” value against Cytochrome P450 1A2 is given as “Active”.
